Values after ≈ are worked out from the molar mass of the structure shown. Where two headings read alike, the source gives them in different places.
Columns and labels:
[1] = rat, in vivo, po, cited from earlier work
staphylococcal isolates = settings: most staphylococcal isolates; no reference given; cited from earlier work
[2] = Pharmacokinetics of rhodomyrtone in rats after a single oral dose (HPLC-UV plasma analysis, non-compartment model); type: in vivo, Sprague Dawley rats; settings: for AUC(0-t): read-out: AUC0–8; for Tmax / Vd/F: po; for k el: read-out: λz (converted)
Experimental: The HPLC method was used to quantify the concentration of rhodomyrtone in rat plasma after a single oral administration of 50 and 100 mg/kg. Blood samples were collected from tail veins at 0, 0.25, 0.5, 1, 2, 3, 4, 5, 6, 7 and 8 h. Rat plasma samples were prepared as described in Section 3.3. Rhodomyrtone was analyzed using a Bondapak C18 HPLC column at 25 °C. […] After several trials, the mobile phase was optimized to achieve good resolution and symmetric peak shapes for both rhodomyrtone and papaverine. […] An appropriate wavelength at 302 nm gave good sensitivity, with no interfering substance of other components. […] The curve of the rhodomyrtone concentration–time profiles was fitted in a non-compartment pharmacokinetic model due to the whole organism as a single compartment where the drug distributes homogeneously and instantaneously, resulting in a constant volume of distribution. The non-compartment model is multifaceted, and it is acceptable for bioequivalence studies.
An aliquot of each rat plasma sample (100 µL) or validation sample was pipetted into a 1.5 mL microcentrifuge tube, spiked with 25 µL papaverine working standard, then the rat plasma was deproteinized with 75 µL acetonitrile, mixed for 30 s and dropped off 5 min to precipitate the protein. The insoluble content was separated from plasma by centrifugation at 5000× g at 10 °C for 15 min, and we collected the supernatant. All samples were filtered through a 0.22 μm PTFE membrane filter. Subsequently, each sample was transferred into glass insert vials. The HPLC injection volume was 80 µL.
HPLC system consisted of Waters Alliance 2695, a model 2487 UV-Vis detector (Waters Associates, Milford, MA, USA). The maximum UV absorbance of rhodomyrtone was detected from 250 to 310 nm. Therefore, the detection wavelength was set at wavelength 302 nm. The chromatographic data were collected and analyzed using Millenium 32® software. Waters Bondapak C18 column, 5 μm, 4.6 mm × 150 mm, was used to set the standard for HPLC drug analytical measurement procedure. The mobile phase consisted of a mixture of acetonitrile and deionized water (80:20% v/v). The mobile phase was pre-filtered through a 0.20 μm filter and was delivered at a rate of 1 mL/min.
Male Sprague Dawley rats weighing 250–350 g were housed in separate stainless cages under a controlled environment (temperature at 22 ± 2 °C and relative humidity of 55 ± 10% with 12 h light and 12 h dark cycles) at the Southern Laboratory Animal Facility, Faculty of Science, Prince of Songkla University, Thailand. During the experimental period, they received a standard rodent diet with free access to ad libitum drinking water. Rats were divided into two groups, each consisting of 12 animals. Each group received a single oral dose of rhodomyrtone (dissolved in medium-chain triglyceride) at 50 mg/kg body weight (Group 1) and 100 mg/kg body weight (Group 2). The animals were fasted for 10 h prior to the experiment. An initial blood sample was taken by clipping the end of the animals’ tails. Blood samples (500 μL) were collected at time intervals of 0 (predose), 0.25, 0.5, 1, 2, 3, 4, 5, 6, 7 and 8 h. The samples were transferred to a heparinized microcentrifuge tube and centrifuged at 2500× g at 10 °C for 10 min. The plasma samples were stored at −80 °C until HPLC analysis.
The individual plasma concentration–time profiles were visually inspected to determine the maximum plasma concentration (Cmax), the minimum plasma concentration (Cmin) and the time to maximum plasma concentration (tmax). WinNonlin Version 1.1 (Scientific Consulting, Apex, NC, USA) was used to analyze the data and calculate for elimination half-life time (t1/2), elimination rate constant (λz), volume of distribution (Vz/F), area under the concentration–time curve between 0 and 8 h (AUC0–8) and the area under the concentration–time curve between 0 and infinity (AUC0–∞). The results were expressed as mean values ± standard deviation (SD).

S. aureus or MRSA = test system: S. aureus or MRSA; parameters: method as in PMID 23029218; settings: 45 passages of stepwise isolation of S. aureus or MRSA on Luria-Bertani agar with rhodomyrtone; cited from earlier work
Bacillus cereus = test system: Bacillus cereus; parameters: method as in PMID 34067029; settings: cited from earlier work
[3] = test system: Staphylococcus aureus ATCC 29213; parameters: method as in PMID 23019189, PMID 34067029; settings: cited from earlier work
[4] = Freeze–thaw stability in plasma; type: in vitro ADME, rat; settings: n = 5
Experimental: (§1) The mean recovery was determined at low, medium and high concentrations from five replicates. The long-term storage stability at −80 °C was determined after 15, 30, 60 and 90 d. Bench-top stability testing was also conducted. Samples were spiked in blank plasma and extracted, then analyzed in three replications at 25 °C for 0, 1, 2, 4, 6 and 8 h. The freeze–thaw cycles were stabilized. Rhodomyrtone was spiked in blank plasma, then stored in a freezer (−20 °C) and thawed every 24 h at room temperature (25 °C) for three cycles prior to extraction.

[5] = parameters: method as in PMID 32793420; settings: cited from earlier work
[6] = test system: Staphylococcus aureus clinical isolated; parameters: method as in PMID 30583020; settings: cited from earlier work
MRSA clinical isolated = settings: cited from earlier work
[7] = Bench-top stability in plasma at 25 °C; type: in vitro ADME, rat; settings: for Bench-top stability, Accuracy (%): n = 5
Experimental: as §1, with “Samples were spiked in blank plasma and extracted, then analyzed in three replications at 25 °C for 0, 1, 2, 4, 6 and 8 h.” left out

[8] = test system: Staphylococcus epidermidis ATCC 35984 (biofilm positive); parameters: method as in PMID 34067029; settings: cited from earlier work
[9] = Long-term storage stability in plasma at −80 °C; type: in vitro ADME, rat; settings: after 15, 30, 60 and 90 d
Experimental: as §1

Streptococcus mutans = test system: Streptococcus mutans; parameters: method as in PMID 19303274; settings: cited from earlier work
MRSA = settings: cited from earlier work
[10] = cited from earlier work
[11] = parameters: method as in PMID 26312207; settings: humans; cited from earlier work
[12] = male, Sprague Dawley, plasma, rat, single oral dose 50 mg/kg, n = 12
[13] = male, Sprague-Dawley, plasma, rat, single oral dose 50 mg/kg, n = 12
[14] = male, Sprague-Dawley, plasma, rat, single oral dose 100 mg/kg, n = 12

In the case of `CC(=O)NC[C@H]1CN(c2ccc(N3CCOCC3)c(F)c2)C(=O)O1` [linezolid], the Cmax ([1]; 50 mg/kg) is listed as 25000 ng/mL and the half-life [1] is listed as 1.1 h.
For `CC(C)CC(=O)c1c(O)cc2c(c1O)[C@@H](CC(C)C)C1=C(O2)C(C)(C)C(=O)C(C)(C)C1=O` [rhodomyrtone, Rhodomyrtone], the MIC (staphylococcal isolates) is given as 0.5 to 1 µg/mL, the half-life ([2]; male, Sprague Dawley, plasma, rat, oral, 50 to 100 mg/kg, read-out: terminal elimination phase half-life (t1/2) (converted)) is given as ~2.5 h and the CL/F [2, 12] is given as 266 mL/min/kg. It also gave an AUC(0-t) [2, 12] of 2680 ± 1090 ng·h/mL, a half-life ([2]; male, Sprague Dawley, plasma, rat, single oral dose 50 mg/kg, n = 12, read-out: t1/2 (converted)) of 2.2 ± 0.74 h and a CL/F ([2]; male, Sprague Dawley, plasma, rat, single oral dose 100 mg/kg, n = 12) of 221 mL/min/kg. For the same compound, the half-life ([2]; male, Sprague Dawley, plasma, rat, single oral dose 100 mg/kg, n = 12, read-out: t1/2 (converted)) was 2.53 ± 0.92 h, the bioavailability ([2]; male, Sprague Dawley, rat, plasma, oral, estimated from SwissADME bioavailability score and AUC, no intravenous data) was ~10% and the Tmax ([2]; male, Sprague Dawley, rat, plasma, 50 mg/kg, rat, single oral dose 50 mg/kg, n = 12, mean ± SD, read-out: Tmax) was 1.92 ± 0.29 h. It also gave a Vd/F ([2]; male, Sprague Dawley, rat, plasma, 50 mg/kg, rat, single oral dose 50 mg/kg, n = 12, read-out: Vz/F) of 48.5 ± 16.9 L/kg, a Vd/F ([2]; male, Sprague Dawley, rat, plasma, 100 mg/kg, rat, oral, 50 and 100 mg/kg doses (not significantly different), read-out: apparent total volume of distribution (Vz/F)) of ~50 L/kg and a Tmax ([2]; male, Sprague Dawley, rat, plasma, 100 mg/kg, rat, oral, both 50 and 100 mg/kg doses, read-out: time to maximum plasma concentration (Tmax)) of 2 h. The Tmax ([2]; male, Sprague Dawley, rat, plasma, 100 mg/kg, rat, single oral dose 100 mg/kg, n = 12, mean ± SD, read-out: Tmax) was 2 h, the Vd/F ([2]; male, Sprague Dawley, rat, plasma, 100 mg/kg, rat, single oral dose 100 mg/kg, n = 12, read-out: Vz/F) was 46.6 ± 13.8 L/kg and the concentration at 8 h ([2]; male, Sprague Dawley, rat plasma, oral 50 mg/kg, 8 h) was ~100 ng/mL. It also gave a Cmax ([2]; male, Sprague Dawley, rat plasma, single oral dose 50 mg/kg, n = 12) of 570 ± 120 ng/mL, a Cmax ([2]; male, Sprague Dawley, rat plasma, single oral dose 100 mg/kg, n = 12) of 1310 ± 200 ng/mL and an AUC(0-inf) [2, 13] of 3410 ± 1040 ng·h/mL. For the same compound, the k el [2, 13] was 0.000139 s⁻¹, the AUC(0-inf) [2, 14] was 7820 ± 1530 ng·h/mL and the AUC(0-t) [2, 14] was 6650 ± 1130 ng·h/mL. The k el [2, 14] was 8.33e-05 s⁻¹, the Cmin ([2]; rat plasma, single oral dose 50 mg/kg, n = 12) was 140 ± 60 ng/mL and the Cmin ([2]; rat plasma, single oral dose 100 mg/kg, n = 12) was 310 ± 90 ng/mL. The “time of rhodomyrtone concentrations above MIC (0.5–1 μg/mL) of most staphylococcal isolates” value ([2]; rat, oral 50 mg/kg) was “approximately 4 h”, the “Cmax relative to the MBCs for MRSA (0.03–1.00 μg/mL)” value ([2]; rat, oral 100 mg/kg) was 2–3 times and the “time of rhodomyrtone concentrations above MIC (0.5–1 μg/mL) of most staphylococcal isolates” value ([2]; rat, oral 100 mg/kg) was ~8 h. The “AUC0–8 as share of AUC0–∞” value ([2]; rat, oral, 8 h sampling time) was “about 80%”, the resistance development (S. aureus or MRSA) was “not found to be resistant” and the MIC (Bacillus cereus) was 0.39 µg/mL (≈ 0.881 µM). The MIC [3] was 0.5 µg/mL (≈ 1.13 µM), the “Freeze–thaw stability, Accuracy (%)” value ([4]; Day 0, 0.1 µg/mL) was 110.31% and the “Freeze–thaw stability, Accuracy (%)” value ([4]; Day 0, 100 µg/mL) was 103.71%. The “Freeze–thaw stability, Accuracy (%)” value ([4]; Day 3 (three cycles −20 °C / 25 °C), 0.1 µg/mL) was 105.93%, the “Freeze–thaw stability, Accuracy (%)” value ([4]; Day 3 (three cycles −20 °C / 25 °C), 100 µg/mL) was 108.10% and the LD50 [5] was 2000 mg/kg. The MIC [6] was 0.5 to 2 µg/mL, the MIC (MRSA clinical isolated) was 0.39 to 0.78 µg/mL and the “Bench-top stability, Accuracy (%)” value ([7]; 0 h, 0.1 µg/mL) was 108.10%. For the same compound, the “Bench-top stability, Accuracy (%)” value ([7]; 0 h, 100 µg/mL) was 97.34%, the “Bench-top stability, accuracy (range over all time points)” value ([7]; 0 to 8 h, 0.1 and 100 µg/mL) was 92–109% and the “Bench-top stability, Accuracy (%)” value ([7]; 1 h, 0.1 µg/mL) was 93.38%. The “Bench-top stability, Accuracy (%)” value ([7]; 1 h, 100 µg/mL) was 96.58%, the “Bench-top stability, Accuracy (%)” value ([7]; 2 h, 0.1 µg/mL) was 108.61% and the “Bench-top stability, Accuracy (%)” value ([7]; 2 h, 100 µg/mL) was 95.97%. The “Bench-top stability, Accuracy (%)” value ([7]; 4 h, 0.1 µg/mL) was 101.47%, the “Bench-top stability, Accuracy (%)” value ([7]; 4 h, 100 µg/mL) was 94.58% and the “Bench-top stability, Accuracy (%)” value ([7]; 6 h, 0.1 µg/mL) was 101.24%. The “Bench-top stability, Accuracy (%)” value ([7]; 8 h, 0.1 µg/mL) was 95.96%, the MIC [8] was 0.39 µg/mL (≈ 0.881 µM) and the “Long-term stability, accuracy” value [9] was 94–114%. The MIC (Streptococcus mutans) was 0.19 µg/mL (≈ 0.429 µM) and the MBCs (MRSA) was 0.03 to 1.00 µg/mL.
In the case of `CN[C@H](CC(C)C)C(=O)N[C@H]1C(=O)N[C@@H](CC(N)=O)C(=O)N[C@H]2C(=O)N[C@H]3C(=O)N[C@H](C(=O)N[C@H](C(=O)O)c4cc(O)cc(O)c4-c4cc3ccc4O)[C@H](O)c3ccc(c(Cl)c3)Oc3cc2cc(c3O[C@@H]2O[C@H](CO)[C@@H](O)[C@H](O)[C@H]2O[C@H]2C[C@](C)(N)[C@H](O)[C@H](C)O2)Oc2ccc(cc2Cl)[C@H]1O` [vancomycin], the half-life ([10]; intramuscular and intraperitoneal administration) is listed as 0.6 h, the oral bioavailability ([10]; rats) is listed as “below 0.5%” and the oral bioavailability [11] is listed as < 10%.
